# Data: patent US20230174562A1, “RADIO-AND CHEMO-PROTECTIVE COMPOUNDS” (TONIX PHARMACEUTICALS, INC., priority 2020, published 2023)
# Tests used:
# mice = assay: Phase 1 maximum tolerated dose (MTD) determination in mice; format: in vivo; conditions: male mice; oral gavage; 1,000 mg/kg
# Method: Male mice were randomized and assessed in two phases: 1) for maximum tolerated doses (MTDs) of PrC-210, DzCH2SH, and 2Pip-2PrSH to determine dose levels for the efficacy study and 2) to evaluate the efficacy of the compounds when administered 60±5 minutes prior to exposure to total body irradiation (TBI) at an LD100/30 dose (990 cGy) (Tables 1 and 2).
# For Phase 1 or 2, sterile water (vehicle), PrC-210, DzCH2SH, and 2Pip2PrSH were administered at 10 mL/kg calculated based on the most recent body weight via oral gavage. Animals were not fasted prior to administration of the compounds or vehicle. Mice in Phase 1 were administered the dose on Day 1 and mice in Phase 2 were administered the dose 60±5 minutes prior to TBI on Day 0.
# All surviving animals were observed once daily for clinical signs (e.g., unusually low or high activity, lethargy, shivering, appearance of fur, bloody and water stool, and other symptoms of moribundity) at 1-2 hours post-irradiation and/or post-dose and once daily on non-dosing days until Day 4 (Phase 1) or Day 30 (Phase 2).
# In Phase 1 (Table 1), all animals were normal when observed and all body weights were within normal range. The dose level of 1000 mg/kg was selected for Phase 2.
# [1] = Hygroscopicity on 10 minute exposure to the atmosphere; format: physicochemical; conditions: 10 minute exposure of a small amount to the atmosphere; diHCl salt
# Method: In Reaction E: 48 ml of HCl in methanol, 6 eq. (1.25 M solution, Aldrich #17935) was added to a solution of compound V, 3.5 g, 0.010 moles dissolved in 10 ml dry methanol in a flask under argon and equipped for magnetic stirring and the reaction was stirred at room temperature for 24 hours. […] The solution was degassed by gently bubbling argon into the solution for 30 minutes. Concentration (rotary evaporator at ambient temperature) provided a crude oily residue which was triturated with hexane producing a white solid. The hexane was removed (via pipette suction) and replaced with dry THF (25 ml). After an additional 10 minutes of trituration, the THF was removed and replaced with dry hexane (25 ml). After an additional 10 minutes of trituration, the hexane was removed and the resulting white solid was dried in vacuo over P2O5 providing 1.95 grams of diHCl salt of PrC-210 (88%). […]
# In Reaction P: Compound XVI, 2.2 grams, 0.0058 moles was placed in a round-bottom flask equipped for magnetic stirring followed by 15 mL anhydrous trifluoroacetic acid (CF3COOH, Aldrich #8.08260). The flask was fitted with a condenser and the solution was refluxed for 5 hours whereupon it was determined that the reaction was complete using TLC by observing the disappearance of starting material and the appearance of a highly polar product, which stained positive with ninhydrin. […]
# [2] = tested on: mice exposed to radiation; assay: Protection of mice from lethal radiation (8 Gy, LD100); format: in vivo; conditions: oral gavage 15-90 minutes prior to 8 Gy (LD100), 60 days post irradiation
# Method: The radioprotective efficacy of the thiols, prodrugs and double prodrugs according to this disclosure is assessed in mice. The compounds of the disclosure are administered via oral gavage to mice, and are compared to mice that have been administered 3-(methylamino)-2-(methylaminomethyl)propane-1-thiol (PrC-210), as well as to a control group or mice that are administered vehicle (i.e., containing no radioprotective additive).
# More specifically, mice are assigned to three groups (Groups 1, 2 and 3). A control group, Group 1, is treated via oral gavage with vehicle (Lactated Ringer's and 5% dextrose, adjusted to pH 7.3 with sodium bicarbonate) 15-90 minutes prior to a dose of 8 Gy (LD100) radiation. Group 2 is treated via oral gavage with PrC-210, as a positive control, dissolved in Lactated Ringer's at a dose of 200 mg/kg 15-90 minutes prior to irradiation with 8 Gy (LD100). Group 3 is treated via oral gavage with compound 1 (PrC-210-PT) dissolved in Lactated Ringer's at a dose of 308 mg/kg 15-90 minutes prior to irradiation with 8 Gy (LD100). The mortality of the three groups is assessed for 60 days post irradiation. The experiment is repeated with doses of PrC-210 ranging from 200 mg/kg to 450 mg/kg. Molar equivalent dosages of the test compound (compound 1, Prc-210-PT) to PrC-210 are also assessed.
# The experiment is repeated to assess the efficacy of compounds 2-23 as radioprotectors.
compound,measurement,setting,value
"CNCC(CS)CNC [PrC-210, 3-(methylamino)-2-((methylamino)methyl)propane-1-thiol, reference compound]",toxicity at the highest tested dose,mice,did not produce any toxicity
same,hygroscopicity,[1],did not show any signs of hygroscopicity
same,rate of survival versus control group,[2],control group demonstrates a reduced rate of survival compared to the mice treated with
